Source: article PMC7818921, “Synthesis and biological evaluation of heterocyclic 1,2,4-triazole scaffolds as promising pharmacological agents” (BMC Chemistry, 2021)
Values after ≈ are worked out from the molar mass of the structure shown. Values joined by “and” are separate entries in the source; they are usually repeats but may differ in a detail not shown here. Equal values may be shown once. Read-outs that look alike come from different tables or passages of the source.

What was measured:
[1] = tested on: Candida albicans; assay: In vitro antifungal screening, tube dilution method; type: cell-based; details: C. albican, Sabouraud dextrose broth, 37 ± 1 °C, 48 h, read-out: Minimum inhibitory concentration
Method: (§1) The in vitro antimicrobial screening of the synthesized 1,2,4-triazole derivatives (T1–T20) in μM was determined against Gram-positive Bacillus subtilis, […], Gram-negative Escherichia coli bacterium and fungal strains Candida albicans and Aspergillus niger by tube dilution method using ciprofloxacin, amoxycillin (antibacterial) and fluconazole (antifungal) as reference drugs. DMSO was used to dissolve the reference and sample derivatives (T1–T20). Dilutions were prepared in nutrient broth (I.P.) for bacterial (incubated at 37 ± 1 °C for 24 h) and Sabouraud dextrose broth (I.P.) for fungal species (37 ± 1 °C for 48 h for C. albicans) and (25 ± 1 °C for 7 days for A. niger) (Table 3, Figs. 4 and 5).

[2] = tested on: Aspergillus niger; assay: as above; type: cell-based; details: A. niger, Sabouraud dextrose broth, 25 ± 1 °C, 7 days, read-out: Minimum inhibitory concentration
Method: as §1

[3] = tested on: Escherichia coli; assay: In vitro antimicrobial screening, tube dilution method; type: cell-based; details: E. coli, Gram −ve, nutrient broth, 37 ± 1 °C, 24 h, read-out: Minimum inhibitory concentration
Method: as §1

[4] = tested on: Pseudomonas aeruginosa; assay: as above; type: cell-based; details: P. aeruginosa, Gram −ve, nutrient broth, 37 ± 1 °C, 24 h, read-out: Minimum inhibitory concentration
Method: as §1

[5] = tested on: Bacillus subtilis; assay: as above; type: cell-based; details: B. substilis, Gram +ve, nutrient broth, 37 ± 1 °C, 24 h, read-out: Minimum inhibitory concentration
Method: as §1

[6] = target: Jack Bean Urease (Canavalia ensiformis, UniProt P07374); assay: biochemical; details: for % inhibition: urease
Sequence of Jack Bean Urease (P07374 whole entry, looked up): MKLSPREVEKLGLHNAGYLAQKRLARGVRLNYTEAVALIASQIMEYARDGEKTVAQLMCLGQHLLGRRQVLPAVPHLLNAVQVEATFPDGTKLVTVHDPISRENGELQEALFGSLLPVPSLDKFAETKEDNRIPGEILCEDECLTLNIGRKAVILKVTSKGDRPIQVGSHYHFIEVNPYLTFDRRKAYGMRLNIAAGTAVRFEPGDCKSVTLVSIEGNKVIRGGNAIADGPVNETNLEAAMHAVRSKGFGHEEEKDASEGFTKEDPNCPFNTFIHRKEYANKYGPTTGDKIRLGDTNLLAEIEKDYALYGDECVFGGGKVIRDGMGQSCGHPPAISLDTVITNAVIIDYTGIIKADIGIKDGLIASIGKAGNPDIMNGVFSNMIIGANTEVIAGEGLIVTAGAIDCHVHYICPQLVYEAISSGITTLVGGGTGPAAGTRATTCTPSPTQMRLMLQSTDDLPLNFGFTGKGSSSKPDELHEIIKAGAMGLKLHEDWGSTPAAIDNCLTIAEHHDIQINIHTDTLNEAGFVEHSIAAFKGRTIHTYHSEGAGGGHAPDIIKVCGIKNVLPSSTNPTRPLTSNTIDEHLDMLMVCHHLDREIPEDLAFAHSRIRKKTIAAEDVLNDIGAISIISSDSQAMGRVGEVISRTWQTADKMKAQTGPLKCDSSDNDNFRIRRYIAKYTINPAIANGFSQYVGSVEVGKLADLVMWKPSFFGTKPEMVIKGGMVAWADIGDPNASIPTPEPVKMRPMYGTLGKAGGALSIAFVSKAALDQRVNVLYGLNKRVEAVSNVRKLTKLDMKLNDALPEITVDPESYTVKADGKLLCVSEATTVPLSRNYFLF
Method: Urease inhibitory potential for each synthesisized compound (T1–T20) was evaluated using Jack Bean Urease by Indophenol method (Table 5, Figs. 9, 10, 11). 250 µl of jack bean urease (4U) was mixed with 250 µl of different synthesized test compounds and standard of different concentrations [dissolved in DMSO/H2O mixture (1:1 v/v)]. The mixture was pre-incubated for 1 h at 37 °C in test tubes. 2 ml of 100 mM phosphate buffer (pH 6.8) containing 500 mM urea and 0.002% phenol red as an indicator were added in sample test tubes after pre incubation and again incubated at room temperature. Absorbance of reaction mixture was recorded by ELISA at 570 nm. Ammonium carbonate increased the pH of phosphate buffer from 6.8 to 7.7 which was produced from urea by urease enzyme and the end peak was measured by the colour of phenol red indicator [16].
The percentage inhibition of urease enzyme was calculated by using following formula: I%=Acontrol-Asample/Acontrol×100,
where Acontrol is the absorbance of the control; Asample is the absorbance of the test compound.

[7] = DPPH free radical scavenging activity; details: for IC50: DPPH antioxidant; for % inhibition: DPPH
Method: In the DPPH free radical scavenging activity, compounds (T1–T20) were evaluated for their free radical scavenging activity with ascorbic acid as standard compound. The scavenging effect increased with the increasing concentrations of sample compounds. DPPH is relatively stable nitrogen centered free radical that easily accepts an electron or hydrogen radical to become a stable diamagnetic molecule. DPPH radicals react with suitable reducing agents as a result of which the electrons become paired off forming the corresponding hydrazine. The solution therefore loses colour stoichometrically depending on the number of electrons taken up. […] The sample solutions were incubated for 30 min at room temperature in dark place and after then absorbance was recorded against the blank solution at 517 nm. The relative percent of DPPH scavenging activity was calculated according to the following equation: I%=Acontrol-Asample/Acontrol×100,
where Acontrol is the absorbance of the control, Asample is the absorbance of the test compound.

[8] = tested on: HCT116 (human colon cancer cells); assay: Anticancer evaluation, SRB assay; type: cell-based
Method: HCT116 (human colon cancer cells) were seeded at 2500 cells/well (96 well plate), allowed to attach overnight, exposed to the respective compounds for 72 h and subjected to SRB assay (570 nm). Data represent mean IC50 of at least triplicates. The compounds were all dissolved in DMSO as stock of 100 mg/ml. […] The highest concentration of each compound tested (100 μg/ml) contained only 0.1% DMSO.

[9] = Homo sapiens, HCT-116, HCT116, 72 h, SRB, mean of at least triplicates
[10] = Homo sapiens, HCT-116, HCT116, value given in dose-response figure
[11] = HCT116, 72 h, SRB, mean of at least triplicates

| SMILES | MIC ([1]; Candida albicans) [µM] | MIC ([2]; Aspergillus niger, 168 h) [µM] | MIC ([3]; Escherichia coli) [µM] | MIC ([4]; Pseudomonas aeruginosa) [µM] | MIC ([5]; Bacillus subtilis) [µM] | IC50 [6] [µM] | inhibition at 25 µg/mL [6] [%] | inhibition at 50 µg/mL [6] [%] | inhibition at 75 µg/mL [6] [%] | inhibition at 100 µg/mL [6] [%] | melting point [°C] | IC50 [7] [µg/mL] | % inhibition ([7]; 25 µg/ml) [%] | % inhibition ([7]; 50 µg/ml) [%] | % inhibition ([7]; 75 µg/ml) [%] | % inhibition ([7]; 100 µg/ml) [%] | IC50 [8, 9] [µM] | further results |
| --- | --- | --- | --- | --- | --- | --- | --- | --- | --- | --- | --- | --- | --- | --- | --- | --- | --- | --- |
| CCCCCCCCCCCCCCCc1nnc(S)n1N=Cc1ccc(O)cc1 [Compound T8] | 116 (≈ 50 µg/mL) | 232 (≈ 100 µg/mL) | 58 (≈ 25 µg/mL) | 58 (≈ 25 µg/mL) | 116 (≈ 50 µg/mL) | 131 | 22.4 | 39.6 | 68.6 | 92.7 | 192 to 195 | 36.12 (≈ 83.9 µM) | 43.91 | 58.67 | 67.54 | 82.57 | > 232 | MIC [3]: 58.0 µM (≈ 25 µg/mL); MIC [4]: 58.0 µM (≈ 25 µg/mL) |
| CCCCCCCCCCCCCCCc1nnc(S)n1N=Cc1ccc(C=O)cc1 [Compound T2] | 226 (≈ 100 µg/mL) | 226 (≈ 100 µg/mL) | 113 (≈ 50 µg/mL) | 56.4 (≈ 25 µg/mL) | 56.4 (≈ 25 µg/mL) | 120 | 40.5 | 49.5 | 55.7 | 67.6 | 182 to 185 | 34.83 (≈ 78.7 µM) | 45.67 | 56.98 | 70.16 | 84.21 | 3.84 | IC50 [8, 10]: 1.7 µg/mL |
| CCCCCCCCCCCCCCCc1nnc(S)n1N=Cc1ccccc1[N+](=O)[O-] [Compound T15] | 218 (≈ 100 µg/mL) | 54.3 (≈ 25 µg/mL) | 218 (≈ 100 µg/mL) | 109 (≈ 50 µg/mL) | 54.3 (≈ 25 µg/mL) | 133 | 29 | 37.1 | 61.8 | 73.1 | 195 to 198 | 47.99 (≈ 104 µM) | 38.56 | 50.64 | 62.16 | 80.56 | > 218 |  |
| CCCCCCCCCCCCCCCc1nnc(S)n1N=Cc1cccc(Br)c1 [Compound T13] | 101 (≈ 50 µg/mL) | 203 (≈ 100 µg/mL) | 203 (≈ 100 µg/mL) | 203 (≈ 100 µg/mL) | 101 (≈ 50 µg/mL) | 101 | 26.6 | 48.8 | 74 | 98.9 | 197 to 200 | 36.40 (≈ 73.8 µM) | 43.46 | 57.67 | 73.76 | 89.56 | > 203 |  |
| OC(Cn1cncn1)(Cn1cncn1)c1ccc(F)cc1F [Fluconazole, reference compound] | 40.8 (≈ 12.5 µg/mL) | 20.4 (≈ 6.25 µg/mL) |  |  |  |  |  |  |  |  |  |  |  |  |  |  |  |  |
| CCCCCCCCCCCCCCCc1nnc(S)n1N=Cc1ccccc1 [Compound T1] | 241 (≈ 100 µg/mL) | 120 (≈ 50 µg/mL) | 241 (≈ 100 µg/mL) | 241 (≈ 100 µg/mL) | 120 (≈ 50 µg/mL) | 125 | 25.8 | 48 | 72.9 | 92 | 184 to 187 | 46.83 (≈ 113 µM) | 25.45 | 49.65 | 69.67 | 94.78 | > 241 |  |
| CCCCCCCCCCCCCCCc1nnc(S)n1N=Cc1ccc(Br)cc1 [Compound T14] | 203 (≈ 100 µg/mL) | 101 (≈ 50 µg/mL) | 101 (≈ 50 µg/mL) | 101 (≈ 50 µg/mL) | 50.6 (≈ 25 µg/mL) | 136 | 41.7 | 46.2 | 50.5 | 57.8 | 193 to 196 | 37.52 (≈ 76 µM) | 37.56 | 60.68 | 85.79 | 95.61 | 128 |  |
| NC(N)=S [Thiourea, reference compound] |  |  |  |  |  |  |  |  |  |  |  |  |  |  |  |  |  | IC50 ([6]; urease inhibition): 54.25 µg/mL; % inhibition ([6]; 25 µg/ml): 29.98%; % inhibition ([6]; 50 µg/ml): 46.76%; % inhibition ([6]; 75 µg/ml): 67.78%; % inhibition ([6]; 100 µg/ml): 76.78% |
| CCCCCCCCCCCCCCCc1nnc(S)n1N=Cc1c(O)ccc2ccccc12 [Compound T18] |  |  |  |  |  |  |  |  |  |  |  |  | 39.59 | 68.57 | 80.13 | 95.89 |  | MIC [1]: 208 µM and 208.0 µM; MIC [2]: 104 µM and 104.0 µM; MIC [3]: 104.0 µM (≈ 50 µg/mL); MIC [4]: 52.0 µM (≈ 25 µg/mL); MIC [5]: 104.0 µM (≈ 50 µg/mL); IC50 ([6]; urease inhibition): 54.30 µg/mL; % inhibition ([6]; 25 µg/ml): 40.90%; % inhibition ([6]; 50 µg/ml): 46.79%; % inhibition ([6]; 75 µg/ml): 55.89%; % inhibition ([6]; 100 µg/ml): 67.9%; IC50 [8, 11]: > 208 µM |
| CCCCCCCCCCCCCCCc1nnc(S)n1N=Cc1ccc(Cl)cc1 [Compound T11] | 27.8 (≈ 12.5 µg/mL) | 111 (≈ 50 µg/mL) | 111 (≈ 50 µg/mL) | 111 (≈ 50 µg/mL) | 55.6 (≈ 25 µg/mL) | 122 | 25 | 42.5 | 68.9 | 92.7 | 202 to 205 | 45.36 (≈ 101 µM) | 35.78 | 52.89 | 70.89 | 89.9 | > 223 |  |
| CCCCCCCCCCCCCCCc1nnc(S)n1N=Cc1ccco1 [Compound T20] |  |  |  |  |  |  |  |  |  |  |  | 46.34 (≈ 115 µM) | 33.45 | 53.67 | 70.46 | 92.67 |  | MIC [1]: 247.1 µM (≈ 100 µg/mL); MIC [2]: 247.1 µM (≈ 100 µg/mL); MIC [3]: 61.7 µM (≈ 25 µg/mL); MIC [4]: 123.5 µM (≈ 50 µg/mL); MIC [5]: 61.7 µM (≈ 25 µg/mL); IC50 ([6]; urease inhibition): 52.34 µg/mL; % inhibition ([6]; 25 µg/ml): 28.98%; % inhibition ([6]; 50 µg/ml): 49.09%; % inhibition ([6]; 75 µg/ml): 69.09%; % inhibition ([6]; 100 µg/ml): 81.90%; IC50 [8, 11]: > 247 µM |
| O=C1O[C@H]([C@@H](O)CO)C(O)=C1O [Ascorbic acid, reference compound] |  |  |  |  |  |  |  |  |  |  |  | 35.44 (≈ 201 µM) | 38.67 | 63.68 | 84.78 | 94.45 |  |  |
| CCCCCCCCCCCCCCCc1nnc(S)n1N=Cc1cc(OC)c(OC)c(OC)c1 [Compound T5] | 12.3 (≈ 6.21 µg/mL) | 99 (≈ 50 µg/mL) | 24.7 (≈ 12.5 µg/mL) | 12.3 (≈ 6.21 µg/mL) | 24.7 (≈ 12.5 µg/mL) | 108 | 23.3 | 44.4 | 70.9 | 90.9 |  | 39.13 (≈ 77.5 µM) | 42.34 | 55.67 | 68.98 | 78.12 | > 198 | MIC [2]: 99.0 µM (≈ 50 µg/mL) |
| O=c1[nH]cc(F)c(=O)[nH]1 [Compound 5-FU, Fluorouracil, reference compound] |  |  |  |  |  |  |  |  |  |  |  |  |  |  |  |  | 25.4 | IC50 [8, 10]: 3.3 µg/mL |
